≈ marks a conversion by molar mass, not a printed value.

The test system of one experiment is E. coli strains. Put plainly: CLSI overnight reference method, broth microdilution MIC. The format is cell-based. Conditions: E. coli strain BEI 4.097; unit assumed. For orientation: Dilution methods test growth across graded concentrations, often in twofold steps.
In turn, `CC1(C)S[C@@H]2[C@H](NC(=O)[C@H](N)c3ccccc3)C(=O)N2[C@H]1C(=O)O` [AMP, Ampicillin] had an MIC (CLSI Ref) of 4 µg/mL (≈ 11.4 µM).
The same measure, in the same setting: in the case of `C[C@H]1[C@H](NC(=O)/C(=N\OC(C)(C)C(=O)O)c2csc(N)n2)C(=O)N1S(=O)(=O)O` [ATM, Aztreonam] it was below 0.25 µg/mL.
Same read-out and setting: under `CC(C)(O/N=C(\C(=O)N[C@@H]1C(=O)N2C(C(=O)[O-])=C(C[n+]3ccccc3)CS[C@H]12)c1csc(N)n1)C(=O)O` [CAZ, Ceftazidime] stands 0.25 µg/mL (≈ 0.457 µM).

Staying with this experiment, now noted: E. coli strain CDC Carba36; unit assumed.
Consider `CC1(C)S[C@@H]2[C@H](NC(=O)[C@H](N)c3ccccc3)C(=O)N2[C@H]1C(=O)O` [AMP, Ampicillin], for which the MIC (CLSI Ref) is above 32 µg/mL.
Compound `C[C@H]1[C@H](NC(=O)/C(=N\OC(C)(C)C(=O)O)c2csc(N)n2)C(=O)N1S(=O)(=O)O` [ATM, Aztreonam] yielded an MIC (CLSI Ref) of 8 µg/mL (≈ 18.4 µM).
On the same count and under the same terms, in the case of `CC(C)(O/N=C(\C(=O)N[C@@H]1C(=O)N2C(C(=O)[O-])=C(C[n+]3ccccc3)CS[C@H]12)c1csc(N)n1)C(=O)O` [CAZ, Ceftazidime] it was 4 µg/mL (≈ 7.32 µM).

The same experiment, now with this note: E. coli strain Clinical Sample 1; unit assumed.
`CC1(C)S[C@@H]2[C@H](NC(=O)[C@H](N)c3ccccc3)C(=O)N2[C@H]1C(=O)O` [AMP, Ampicillin] returned an MIC (CLSI Ref) of 4 µg/mL (≈ 11.4 µM).
On the same count and under the same terms, in the case of `C[C@H]1[C@H](NC(=O)/C(=N\OC(C)(C)C(=O)O)c2csc(N)n2)C(=O)N1S(=O)(=O)O` [ATM, Aztreonam] it was below 0.25 µg/mL; in that of `CC(C)(O/N=C(\C(=O)N[C@@H]1C(=O)N2C(C(=O)[O-])=C(C[n+]3ccccc3)CS[C@H]12)c1csc(N)n1)C(=O)O` [CAZ, Ceftazidime], 0.25 µg/mL (≈ 0.457 µM).

Still in this experiment, the particulars now being: E. coli strain Clinical Sample 2; unit assumed.
The compound `CC1(C)S[C@@H]2[C@H](NC(=O)[C@H](N)c3ccccc3)C(=O)N2[C@H]1C(=O)O` [AMP, Ampicillin] showed an MIC (CLSI Ref) above 32 µg/mL.
The same measure, in the same setting: under `C[C@H]1[C@H](NC(=O)/C(=N\OC(C)(C)C(=O)O)c2csc(N)n2)C(=O)N1S(=O)(=O)O` [ATM, Aztreonam] stands 0.5 µg/mL (≈ 1.15 µM).
On the same count and under the same terms, in the case of `CC(C)(O/N=C(\C(=O)N[C@@H]1C(=O)N2C(C(=O)[O-])=C(C[n+]3ccccc3)CS[C@H]12)c1csc(N)n1)C(=O)O` [CAZ, Ceftazidime] it was 2 µg/mL (≈ 3.66 µM).

Still in this experiment, the particulars now being: E. coli strain Clinical Sample 4; unit assumed.
`CC1(C)S[C@@H]2[C@H](NC(=O)[C@H](N)c3ccccc3)C(=O)N2[C@H]1C(=O)O` [AMP, Ampicillin] showed an MIC (CLSI Ref) above 32 µg/mL.
Still for that read-out and setting: under `C[C@H]1[C@H](NC(=O)/C(=N\OC(C)(C)C(=O)O)c2csc(N)n2)C(=O)N1S(=O)(=O)O` [ATM, Aztreonam] stands below 0.25 µg/mL; under `CC(C)(O/N=C(\C(=O)N[C@@H]1C(=O)N2C(C(=O)[O-])=C(C[n+]3ccccc3)CS[C@H]12)c1csc(N)n1)C(=O)O` [CAZ, Ceftazidime], 0.25 µg/mL (≈ 0.457 µM).

Staying with this experiment, now noted: E. coli strain Clinical Sample 5; unit assumed.
In the case of `CC1(C)S[C@@H]2[C@H](NC(=O)[C@H](N)c3ccccc3)C(=O)N2[C@H]1C(=O)O` [AMP, Ampicillin], the MIC (CLSI Ref) is above 32 µg/mL.
Take `C[C@H]1[C@H](NC(=O)/C(=N\OC(C)(C)C(=O)O)c2csc(N)n2)C(=O)N1S(=O)(=O)O` [ATM, Aztreonam]: the MIC (CLSI Ref) was below 0.25 µg/mL.
Same read-out and setting: in the case of `CC(C)(O/N=C(\C(=O)N[C@@H]1C(=O)N2C(C(=O)[O-])=C(C[n+]3ccccc3)CS[C@H]12)c1csc(N)n1)C(=O)O` [CAZ, Ceftazidime] it was 0.25 µg/mL (≈ 0.457 µM).

Still in this experiment, the particulars now being: E. coli strain Clinical Sample 6; unit assumed.
As to `CC1(C)S[C@@H]2[C@H](NC(=O)[C@H](N)c3ccccc3)C(=O)N2[C@H]1C(=O)O` [AMP, Ampicillin], the MIC (CLSI Ref) stood at 4 µg/mL (≈ 11.4 µM).
`C[C@H]1[C@H](NC(=O)/C(=N\OC(C)(C)C(=O)O)c2csc(N)n2)C(=O)N1S(=O)(=O)O` [ATM, Aztreonam] showed an MIC (CLSI Ref) below 0.25 µg/mL.
The same measure, in the same setting: in the case of `CC(C)(O/N=C(\C(=O)N[C@@H]1C(=O)N2C(C(=O)[O-])=C(C[n+]3ccccc3)CS[C@H]12)c1csc(N)n1)C(=O)O` [CAZ, Ceftazidime] it was 0.12 µg/mL (≈ 0.22 µM).

Still in this experiment, the particulars now being: E. coli strain Clinical Sample 7; unit assumed.
`CC1(C)S[C@@H]2[C@H](NC(=O)[C@H](N)c3ccccc3)C(=O)N2[C@H]1C(=O)O` [AMP, Ampicillin] gave an MIC (CLSI Ref) above 32 µg/mL.
The same measure, in the same setting: under `C[C@H]1[C@H](NC(=O)/C(=N\OC(C)(C)C(=O)O)c2csc(N)n2)C(=O)N1S(=O)(=O)O` [ATM, Aztreonam] stands below 0.25 µg/mL; under `CC(C)(O/N=C(\C(=O)N[C@@H]1C(=O)N2C(C(=O)[O-])=C(C[n+]3ccccc3)CS[C@H]12)c1csc(N)n1)C(=O)O` [CAZ, Ceftazidime], 0.25 µg/mL (≈ 0.457 µM).

Still in this experiment, the particulars now being: E. coli strain Clinical Sample 8; unit assumed.
For the compound `CC1(C)S[C@@H]2[C@H](NC(=O)[C@H](N)c3ccccc3)C(=O)N2[C@H]1C(=O)O` [AMP, Ampicillin], the MIC (CLSI Ref) was above 32 µg/mL.
Same read-out and setting: in the case of `C[C@H]1[C@H](NC(=O)/C(=N\OC(C)(C)C(=O)O)c2csc(N)n2)C(=O)N1S(=O)(=O)O` [ATM, Aztreonam] it was 64 µg/mL (≈ 147 µM); in that of `CC(C)(O/N=C(\C(=O)N[C@@H]1C(=O)N2C(C(=O)[O-])=C(C[n+]3ccccc3)CS[C@H]12)c1csc(N)n1)C(=O)O` [CAZ, Ceftazidime], above 32 µg/mL.

The same experiment, now with this note: E. coli strain Clinical Sample 9; unit assumed.
With `CC1(C)S[C@@H]2[C@H](NC(=O)[C@H](N)c3ccccc3)C(=O)N2[C@H]1C(=O)O` [AMP, Ampicillin], the MIC (CLSI Ref) is above 32 µg/mL.
The same measure, in the same setting: under `C[C@H]1[C@H](NC(=O)/C(=N\OC(C)(C)C(=O)O)c2csc(N)n2)C(=O)N1S(=O)(=O)O` [ATM, Aztreonam] stands 32 µg/mL (≈ 73.5 µM); under `CC(C)(O/N=C(\C(=O)N[C@@H]1C(=O)N2C(C(=O)[O-])=C(C[n+]3ccccc3)CS[C@H]12)c1csc(N)n1)C(=O)O` [CAZ, Ceftazidime], above 32 µg/mL.

The experiment is the same for the next values; noted with them: E. coli strain Clinical Sample 10; unit assumed.
Regarding `CC1(C)S[C@@H]2[C@H](NC(=O)[C@H](N)c3ccccc3)C(=O)N2[C@H]1C(=O)O` [AMP, Ampicillin], the MIC (CLSI Ref) is above 32 µg/mL.
Same read-out and setting: under `C[C@H]1[C@H](NC(=O)/C(=N\OC(C)(C)C(=O)O)c2csc(N)n2)C(=O)N1S(=O)(=O)O` [ATM, Aztreonam] stands below 0.25 µg/mL; under `CC(C)(O/N=C(\C(=O)N[C@@H]1C(=O)N2C(C(=O)[O-])=C(C[n+]3ccccc3)CS[C@H]12)c1csc(N)n1)C(=O)O` [CAZ, Ceftazidime], 0.12 µg/mL (≈ 0.22 µM).

The same experiment, now with this note: E. coli strain Clinical Sample 11; unit assumed.
In turn, `CC1(C)S[C@@H]2[C@H](NC(=O)[C@H](N)c3ccccc3)C(=O)N2[C@H]1C(=O)O` [AMP, Ampicillin] yielded an MIC (CLSI Ref) of 4 µg/mL (≈ 11.4 µM).
The same measure, in the same setting: under `C[C@H]1[C@H](NC(=O)/C(=N\OC(C)(C)C(=O)O)c2csc(N)n2)C(=O)N1S(=O)(=O)O` [ATM, Aztreonam] stands below 0.25 µg/mL; under `CC(C)(O/N=C(\C(=O)N[C@@H]1C(=O)N2C(C(=O)[O-])=C(C[n+]3ccccc3)CS[C@H]12)c1csc(N)n1)C(=O)O` [CAZ, Ceftazidime], 0.25 µg/mL (≈ 0.457 µM).

Still in this experiment, the particulars now being: E. coli strain Clinical Sample 12; unit assumed.
Consider `CC1(C)S[C@@H]2[C@H](NC(=O)[C@H](N)c3ccccc3)C(=O)N2[C@H]1C(=O)O` [AMP, Ampicillin], for which the MIC (CLSI Ref) worked out at 4 µg/mL (≈ 11.4 µM).
The same measure, in the same setting: in the case of `C[C@H]1[C@H](NC(=O)/C(=N\OC(C)(C)C(=O)O)c2csc(N)n2)C(=O)N1S(=O)(=O)O` [ATM, Aztreonam] it was below 0.25 µg/mL; in that of `CC(C)(O/N=C(\C(=O)N[C@@H]1C(=O)N2C(C(=O)[O-])=C(C[n+]3ccccc3)CS[C@H]12)c1csc(N)n1)C(=O)O` [CAZ, Ceftazidime], 0.12 µg/mL (≈ 0.22 µM).

The experiment is the same for the next values; noted with them: E. coli strain Clinical Sample 13; unit assumed.
Compound `CC1(C)S[C@@H]2[C@H](NC(=O)[C@H](N)c3ccccc3)C(=O)N2[C@H]1C(=O)O` [AMP, Ampicillin] came in with an MIC (CLSI Ref) above 32 µg/mL.
For `C[C@H]1[C@H](NC(=O)/C(=N\OC(C)(C)C(=O)O)c2csc(N)n2)C(=O)N1S(=O)(=O)O` [ATM, Aztreonam], the MIC (CLSI Ref) is below 0.25 µg/mL.
Same read-out and setting: in the case of `CC(C)(O/N=C(\C(=O)N[C@@H]1C(=O)N2C(C(=O)[O-])=C(C[n+]3ccccc3)CS[C@H]12)c1csc(N)n1)C(=O)O` [CAZ, Ceftazidime] it was 0.12 µg/mL (≈ 0.22 µM).

The record behind these values is US12203124B2, “Methods for improved rapid antimicrobial susceptibility testing” (priority 2016, dated 2025).
